In the assay the target is ATP-sensitive inward rectifier potassium channel 1 (Homo sapiens) (UniProt P48048). In words: PubChem AID 1922. The conditions noted are these: HEK-293 ROMK whole-cell patch clamp, % block, stronger effect = higher value. A general note: In patch-clamp work, channel activity is measured electrically.
Chain of ATP-sensitive inward rectifier potassium channel 1 (Homo sapiens) (P48048 whole entry, looked up): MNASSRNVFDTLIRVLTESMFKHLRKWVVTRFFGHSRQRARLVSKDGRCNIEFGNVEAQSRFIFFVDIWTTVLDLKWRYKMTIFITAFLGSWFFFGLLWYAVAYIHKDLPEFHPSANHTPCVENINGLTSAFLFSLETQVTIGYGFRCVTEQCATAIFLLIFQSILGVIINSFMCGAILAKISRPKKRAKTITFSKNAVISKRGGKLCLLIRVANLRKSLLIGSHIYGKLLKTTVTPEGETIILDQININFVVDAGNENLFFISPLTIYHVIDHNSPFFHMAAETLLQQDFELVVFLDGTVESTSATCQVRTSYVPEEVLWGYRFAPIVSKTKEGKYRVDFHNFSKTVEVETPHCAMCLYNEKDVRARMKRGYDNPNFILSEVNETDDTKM

On to `O=[N+]([O-])c1ccc(CN2CCOCCOCCN(Cc3ccc([N+](=O)[O-])cc3)CCOCC2)cc1`, for which the inhibition (ROMK block, at 1 µM) is 63.4%; the inhibition (ROMK block, at 3 µM) came to 78.2%; the inhibition (at 10 µM) was 95.3%.

On to `O=[N+]([O-])c1ccc2nc(COCc3nc4ccc([N+](=O)[O-])cc4[nH]3)[nH]c2c1`, for which the inhibition reads like this: (ROMK block, at 1 µM) 62.6%; (ROMK block, at 3 µM) 78.3%; (at 10 µM) 88.7%.

As usually defined, the inhibition is the share of the control response that was lost under treatment.

(Values after PubChem BioAssay AID1922 (Vanderbilt High Throughput Screening Facility, 2009).)
